From ChEMBL document CHEMBL1136289, “Synthesis and biological evaluation of thymine nucleosides fused with 3',4'-tetrahydrofuran ring” (Bioorg Med Chem Lett, 2003)
≈ marks a conversion by molar mass, not a printed value.

What was measured:
Details in all cases: Homo sapiens
HeLa [1] = test: Compound was evaluated for its inhibitory effect on the replication of Coxsackie virus B3 (Cox. B3) in HeLa cells; type: functional, cell-based
MT4 [2] = test: Compound was evaluated for its inhibitory effect on the replication of HIV-2 (ROD) in MT-4 cells; type: functional, cell-based
MT4 [3] = test: Compound was evaluated for its inhibitory effect on the replication of HIV-1(IIIB) in MT-4 cells; type: functional, cell-based
HeLa [4] = test: Compound was evaluated for its inhibitory effect on the replication of vesicular stomatitis virus (VSV) in HeLa cells; type: functional, cell-based
HeLa [5] = test: Compound was evaluated for its inhibitory effect on the replication of encephalomyocarditis virus (EMCV) in HeLa cells; type: functional, cell-based
HeLa [6] = test: Cytotoxicity against HeLa cells; type: functional
MT4 [7] = test: Cytotoxicity against MT-4 cells; type: functional

| Compound | EC50 (HeLa [1]) [µg/mL] | EC50 (MT4 [2]) [µg/mL] | EC50 (MT4 [3]) [µg/mL] | EC50 (HeLa [4]) [µg/mL] | EC50 (HeLa [5]) [µg/mL] | CC50 (HeLa [6]) [µg/mL] | CC50 (MT4 [7]) [µg/mL] |
| --- | --- | --- | --- | --- | --- | --- | --- |
| Cc1cn(C2OC3(CO)COCC3C2O)c(=O)[nH]c1=O (stereo unspecified) | 100 (≈ 352 µM) | > 0.54 | 95.8 (≈ 337 µM) | 100 (≈ 352 µM) | 100 (≈ 352 µM) | 100 (≈ 352 µM) | 0.54 (≈ 1.9 µM) |
| Cc1cn(C2CC3COCC3(CO)O2)c(=O)[nH]c1=O (stereo unspecified) | > 4.11 | > 100 | > 100 | 3.45 (≈ 12.9 µM) | > 4.11 | 4.11 (≈ 15.3 µM) | < 0.8 |
| NC(=O)c1ncn([C@@H]2O[C@H](CO)[C@@H](O)[C@H]2O)n1 [RIBAVIRIN] | 181 (≈ 743 µM) | – | – | 14.4 (≈ 59 µM) | 20.9 (≈ 85.7 µM) | 300 (≈ 1230 µM) | – |
| Cc1cn([C@H]2C[C@H](N=[N+]=[N-])[C@@H](CO)O2)c(=O)[nH]c1=O [ZIDOVUDINE] | – | 0.01 (≈ 0.0374 µM) | 0.0012 (≈ 0.00449 µM) | – | – | – | 1.64 (≈ 6.14 µM) |
